The nature of data set [1]: physchem.
For data set [2], the system named is Phaedon cochleariae. Nature of the data set: Phaedon test (PHAECO spray treatment). It counts as in vivo. The note with it: sprayed Chinese cabbage leaf discs, larvae, after 7 days, 100 % = all beetle larvae killed. From the text: Phaedon-Test (PHAECO Spritzbehandlung)
(§1) • Lösungsmittel: 78,0 GewichtsteileAceton 1,5 Gewichtsteile Dimethylformamid • Emulgator: 0,5 Gewichtsteile Alkylarylpolyglykolether
(§2) Zur Herstellung einer zweckmäßigen Wirkstoffzubereitung vermischt man 1 Gewichtsteil Wirkstoff mit den angegebenen Mengen Lösungsmittel und Emulgator und verdünnt das Konzentrat mit emulgatorhaltigem Wasser auf die gewünschte Konzentration.
Chinakohlblattscheiben (Brassica pekinensis) werden mit einer Wirkstoffzubereitung der gewünschten Konzentration gespritzt und nach dem Abtrocknen mit Larven des Meerrettichblattkäfers (Phaedon cochleariae) besetzt.
Nach 7 Tagen wird die Wirkung in % bestimmt. Dabei bedeutet 100 %, dass alle Käferlarven abgetötet wurden; 0 % bedeutet, dass keine Käferlarven abgetötet wurden.

Data set [3] can be described thus: physchem. This is another data set of the same source.
For data set [4], the system named is Spodoptera frugiperda. Nature of the data set: Spodoptera frugiperda test (SPODFR spray treatment). The format is in vivo. The note with it: 500 g/ha, sprayed maize leaf discs, caterpillars, after 7 days; 100 % = all caterpillars killed.
Text: Spodoptera frugiperda-Test (SPODFR Spritzbehandlung)
as §1, §2
Maisblattscheiben (Zea mays) werden mit einer Wirkstoffzubereitung der gewünschten Konzentration gespritzt und nach dem Abtrocknen mit Raupen des Heerwurms (Spodoptera frugiperda) besetzt.Nach 7 Tagen wird die Wirkung in % bestimmt. Dabei bedeutet 100 %, dass alle Raupen abgetötet wurden; 0 % bedeutet, dass keine Raupe abgetötet wurde.

Data set [5] has as its system Tetranychus urticae. The format is in vivo. Conditions: foliar, 144 h.
Text: Tetranychus-Test, OP-resistent (TETRUR Spritzbehandlung)
as §1, §2
Bohnenblattscheiben (Phaseolus vulgaris), die von allen Stadien der Gemeinen Spinnmilbe (Tetranychus urticae) befallen sind, werden mit einer Wirkstoffzubereitung der gewünschten Konzentration gespritzt.
Nach 6 Tagen wird die Wirkung in % bestimmt. Dabei bedeutet 100 %, dass alle Spinnmilben abgetötet wurden; 0 % bedeutet, dass keine Spinnmilben abgetötet wurden.

Data set [6] has as its system Ctenocephalides felis. The data set is described as follows: Ctenocephalides felis oral test (CTECFE). The format is in vivo. The note with it: 100 ppm in citrated cattle blood, oral uptake, adult fleas, after 2 days; 100 % = all fleas killed. On the procedure: Ctenocephalides felis oral (CTECFE)
Lösungsmittel: 1 Gewichtsteil Dimethylsulfoxid
Zwecks Herstellung einer zweckmäßigen Wirkstoffzubereitung vermischt man 10 mg Wirkstoff mit 0,5 ml Dimethylsulfoxid. Ein Teil des Konzentrats wird mit citriertem Rinderblut verdünnt und die gewünschte Konzentration hergestellt.
20 nüchterne adulte Flöhe (Ctenocephalides felis) werden in eine Kammer eingesetzt, die oben und unten mit Gaze verschlossen ist. Auf die Kammer wird ein Metallzylinder gestellt, dessen Unterseite mit Parafilm verschlossen ist. Der Zylinder enthält die Blut-Wirkstoffzubereitung, die von den Flöhen durch die Parafilmmembran aufgenommen werden kann. Nach 2 Tagen wird die Abtötung in % bestimmt. Dabei bedeutet 100 %, dass alle Flöhe abgetötet wurden; 0 % bedeutet, dass kein Floh abgetötet wurde.

Read-outs that look alike come from different tables or passages of the source.

Consider 32 molecules from patent EP2253617A1, “Halogenated compounds as pesticides” (Bayer CropScience AG, priority 2009, dated 2010).

On to `Cn1nc(C(F)(F)C(F)(F)F)c(C(F)(F)F)c1C(=O)Nc1ccc(Cl)c(C(=O)Nc2ccncc2)c1` [Ia-1], for which, in data set [1], the chromatographic logP was 1.99. In data set [2] (500 g/ha), this molecule yielded a Wirkung of 100%.

In turn, `Cc1nc(C(F)(F)F)ccc1C(=O)Nc1ccc(Cl)c(C(=O)Nc2ccc(F)cc2)c1` [Ia-3, N-{4-Chlor-3-[(4-fluorphenyl)carbamoyl]phenyl}-2-methyl-6-(trifluormethyl)nicotinamid] had a chromatographic logP in data set [3] of 3.15. Moreover, the Wirkung in data set [4] and in data set [2] (500 g/ha) was 100% each time.

On to `Cn1nc(C(F)(F)C(F)(F)F)c(C(F)(F)F)c1C(=O)Nc1ccc(Cl)c(C(=O)Nc2cnccc2Cl)c1` [Ia-4], for which, in data set [1], the chromatographic logP turned out to be 3.33. Further, the Wirkung in data set [4] turned out to be 80%; in data set [2] (500 g/ha), 100%.

Regarding `O=C(Nc1ccc(Cl)c(C(=O)Nc2ccc(F)cc2)c1)c1csc(C(F)(F)F)n1` [Ia-5], in data set [3], the chromatographic logP is 3.35.

For `Cn1nc(C(F)(F)C(F)(F)F)c(C(F)(F)F)c1C(=O)Nc1ccc(Cl)c(C(=O)Nc2ccnc(Cl)c2)c1` [Ia-6], in data set [1], the chromatographic logP worked out at 3.37. For the same molecule, the Wirkung in data set [4] came to 100%; in data set [5] (500 g/ha), 80%; in data set [2] (500 g/ha), 100%.

Turning to `Cn1nc(C(F)(F)F)c(Br)c1C(=O)Nc1ccc(Cl)c(C(=O)Nc2ccc(Cl)nc2)c1` [Ia-7], in data set [3], the chromatographic logP amounted to 3.42. Further, the Wirkung in data set [5] (100 g/ha) was 80%; in data set [2] (100 g/ha), 100%.

In data set [3], `Cc1nc(C(F)(F)F)ccc1C(=O)Nc1ccc(Cl)c(C(=O)Nc2cccc(Cl)c2)c1` [Ia-9] had a chromatographic logP of 3.6. In data set [2] (500 g/ha), this molecule showed a Wirkung of 80%.

Molecule `O=C(Nc1ccc(F)cc1)c1cc(NC(=O)c2cnc(C(F)(F)C(F)(F)F)nc2C(F)F)ccc1Cl` [Ia-10] displayed a chromatographic logP in data set [3] of 3.67. Moreover, the Wirkung in data set [2] (500 g/ha) is listed as 100%.

Molecule `COc1ccc(NC(=O)c2cc(NC(=O)c3c(C(F)(F)F)c(C(F)(F)C(F)(F)F)nn3C)ccc2Cl)cc1` [Ia-12] displayed a chromatographic logP in data set [1] of 3.68. The molecule also showed a Wirkung in data set [4] of 100%.

For the molecule `Cn1nc(C(F)(F)C(F)(F)F)c(C(F)(F)F)c1C(=O)Nc1ccc(Cl)c(C(=O)Nc2cccnc2Cl)c1` [Ia-13], the chromatographic logP in data set [1] is 3.73. The Wirkung amounted to 100% in data set [4], 90% in data set [5] (500 g/ha) and 100% in data set [2] (500 g/ha).

In the case of `O=C(Nc1ccc(Cl)c(C(=O)Nc2cccc(Cl)c2)c1)c1csc(C(F)(F)F)n1` [Ia-14], the chromatographic logP in data set [3] came to 3.82.

Molecule `Cn1nc(C(F)(F)C(F)(F)F)c(C(F)(F)F)c1C(=O)Nc1ccc(Cl)c(C(=O)Nc2cccc(Cl)n2)c1` [Ia-19] came in with a chromatographic logP in data set [1] of 3.94. Moreover, the Wirkung in data set [4], in data set [5] (500 g/ha) and in data set [2] (500 g/ha) was 100% in each case.

In data set [3], `O=C(Nc1ccc(F)cc1)c1cc(NC(=O)c2cnc(C(F)(F)C(F)(F)F)nc2C(F)(F)F)ccc1Cl` [Ia-20] had a chromatographic logP of 3.98. The Wirkung in data set [4] and in data set [2] (500 g/ha) was 100% each time.

In data set [1], `Cc1cc(F)ccc1NC(=O)c1cc(NC(=O)c2c(C(F)(F)F)c(C(F)(F)C(F)(F)F)nn2C)ccc1Cl` [Ia-23] yielded a chromatographic logP of 4.05. The Wirkung in data set [4] amounted to 100%; in data set [5] (500 g/ha) it was 90%; in data set [2] (500 g/ha), 100%.

The molecule `O=C(Nc1ccc(F)cc1)c1cc(NC(=O)c2cnc(C(F)(F)C(F)(F)F)nc2C2CC2)ccc1Cl` [Ia-24] returned a chromatographic logP in data set [3] of 4.08. Moreover, the Wirkung in data set [4] and in data set [2] (500 g/ha) was 100% each time.

`O=C(Nc1cccc(Cl)c1)c1cc(NC(=O)c2cnc(C(F)(F)C(F)(F)F)nc2C(F)F)ccc1Cl` [Ia-25] returned a chromatographic logP in data set [3] of 4.08. The Wirkung in data set [4] and in data set [2] (500 g/ha) was 100% throughout.

In data set [1], `Cn1nc(C(F)(F)C(F)(F)F)c(C(F)(F)F)c1C(=O)Nc1ccc(Cl)c(C(=O)Nc2ccc(Cl)cn2)c1` [Ia-27] came in with a chromatographic logP of 4.17. In addition, the Wirkung in data set [4] and in data set [2] (500 g/ha) was 100% throughout.

The molecule `Cn1nc(C(F)(F)C(F)(F)F)c(C(F)(F)F)c1C(=O)Nc1ccc(Cl)c(C(=O)Nc2ccccc2Cl)c1` [Ia-31] came in with a chromatographic logP in data set [1] of 4.28. For the same molecule, the Wirkung in data set [4] and in data set [2] (500 g/ha) was 100% in each case. The “Wirkung (Abtötung in %)” value in data set [6] stood at 95%.

In data set [3], `O=C(Nc1cccc(Cl)c1)c1cc(NC(=O)c2cnc(C(F)(F)C(F)(F)F)nc2C(F)(F)F)ccc1Cl` [Ia-32, N-{4-Chlor-3-[(3-chlorphenyl)carbamoyl]phenyl}-2-(pentafluorethyl)-4-(trifluormethyl)pyrimidin-5-carboxamid] returned a chromatographic logP of 4.32. Further, the Wirkung in data set [4] and in data set [2] (500 g/ha) was 100% throughout.

In data set [1], `Cc1c(NC(=O)c2cc(NC(=O)c3c(C(F)(F)F)c(C(F)(F)C(F)(F)F)nn3C)ccc2Cl)ccc(F)c1Cl` [Ia-33] showed a chromatographic logP of 4.34. The Wirkung in data set [4] is listed as 100%; in data set [5] (500 g/ha), 90%; in data set [2] (500 g/ha) it was 100%.

On to `O=C(Nc1ccc(F)cc1)c1cc(NC(=O)c2cnc(C(F)(F)C(F)(F)F)nc2C(F)(F)C(F)(F)F)ccc1Cl` [Ia-34], for which the chromatographic logP in data set [3] was found to be 4.36. Also, the Wirkung is listed as 100% in data set [4], 80% in data set [5] (500 g/ha) and 100% in data set [2] (500 g/ha).

With `Cn1nc(C(F)(F)C(F)(F)F)c(Br)c1C(=O)Nc1ccc(Cl)c(C(=O)Nc2ccc(Cl)cn2)c1` [Ia-35], the values for the Wirkung in data set [4] and in data set [2] (500 g/ha) were 80% and 100%, respectively.

Take `Cn1nc(C(F)(F)C(F)(F)F)c(C(F)(F)F)c1C(=O)Nc1ccc(Cl)c(C(=O)Nc2cccc(C(F)(F)F)c2)c1` [Ia-37]: the chromatographic logP in data set [1] is 4.4. Further, the Wirkung in data set [4] and in data set [2] (500 g/ha) was 100% each time.

`Cn1nc(C(F)(F)C(F)(F)F)c(Br)c1C(=O)Nc1ccc(Cl)c(C(=O)Nc2ccc(Cl)cc2)c1` [Ia-38] registered a chromatographic logP in data set [3] of 4.43. This molecule also registered a Wirkung in data set [2] (500 g/ha) of 80%.

`Cn1nc(C(F)(F)C(F)(F)F)c(C(F)(F)F)c1C(=O)Nc1ccc(Cl)c(C(=O)Nc2ccc(F)c(C(F)(F)F)c2)c1` [Ia-39] had a chromatographic logP in data set [1] of 4.51. In addition, the Wirkung in data set [4] and in data set [2] (500 g/ha) was 100% in each case.

Turning to `O=C(Nc1cccc(Cl)c1)c1cc(NC(=O)c2cnc(C(F)(F)C(F)(F)F)nc2C2CC2)ccc1Cl` [Ia-40], the chromatographic logP in data set [3] is 4.54. In data set [4], this molecule came in with a Wirkung of 100%.

`Cc1cc(NC(=O)c2cc(NC(=O)c3c(C(F)(F)F)c(C(F)(F)C(F)(F)F)nn3C)ccc2Cl)c(Cl)cc1F` [Ia-41] yielded a chromatographic logP in data set [1] of 4.64. In addition, in data set [2] (500 g/ha), the Wirkung is given as 100%.

In turn, `Cn1nc(C(F)(F)C(F)(F)F)c(C(F)(F)F)c1C(=O)Nc1ccc(Cl)c(C(=O)Nc2ccc(Cl)c(Cl)c2)c1` [Ia-42, N-{4-Chlor-3-[(3,4-dichlorphenyl)carbamoyl]phenyl}-1-methyl-3-(pentafluorethyl)-4-(trifluormethyl)-1H-pyrazol-5-carboxamid] came in with a chromatographic logP in data set [1] of 4.65. Also, the Wirkung in data set [4] and in data set [2] (500 g/ha) was 100% throughout.

On to `Cn1nc(Cn2nc(C(F)(F)C(F)(F)F)cc2C(F)(F)C(F)(F)F)c(C(F)(F)F)c1C(=O)Nc1ccc(Cl)c(C(=O)Nc2ccc(F)cc2)c1` [Ia-43], for which the chromatographic logP in data set [3] was 4.99. For the same molecule, the Wirkung in data set [4] and in data set [2] (500 g/ha) was 100% throughout.

As for `Cn1nc(C(F)(F)C(F)(F)F)c(C(F)(F)F)c1C(=O)Nc1ccc(Cl)c(C(=O)Nc2cc(Cl)c(Cl)c(Cl)c2)c1` [Ia-44], the chromatographic logP in data set [1] stood at 5.15. In addition, the Wirkung in data set [4] and in data set [2] (500 g/ha) was 100% in each case.

`Cn1nc(C(F)(F)C(F)(F)F)c(C(F)(F)F)c1C(=O)Nc1ccnc(C(=O)Nc2ccc(F)cc2)c1` [Ib-1, N-[2-(4-fluor-phenylcarbamoyl)pyrid-4-yl]-1-methyl-3-(pentafluorethyl)-4-(trifluormethyl)-1H-pyrazol-5-carbonsäureamid] had a chromatographic logP in data set [3] of 4.3.

`Cn1nc(C(F)(F)C(F)(F)F)c(C(F)(F)F)c1C(=O)Nc1ccc(Br)c(C(=O)Nc2ccc(F)cc2)n1` [Ic-1, N-[3-Brom-2-(4-fluor-phenylcarbamoyl)pyrid-6-yl]-1-methyl-3-(pentafluorethyl)-4-(trifluormethyl)-1H-pyrazol-5-carbonsäureamid] came in with a chromatographic logP in data set [3] of 4.45. Also, the Wirkung in data set [4] and in data set [2] (500 g/ha) was 100% in each case.

As a reminder, the chromatographic logP is lipophilicity estimated from chromatographic retention.
